These results are taken from ChEMBL document CHEMBL1201862, “PubChem BioAssay data set” (2004).

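Assay format: 96-well plates, 48-hour exposure. At the GI50, growth is halved.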 Active and inactive are the calls of the source. No stated cut-off is given here; in the data, active = GI50 up to about 1.1 µM and inactive = higher.

Among the test systems are DLD-1; DMS-273; HOP-18; KM-20L2; LXFL 529; M19-MEL; SNB-78; XF498; DMS-114.
Experiment in all cases: inhibition of tumour cell growth, NCI panel, 48 h

As for `CC(=O)Nc1ccc(C2CC(c3ccc([N+](=O)[O-])cc3)=Nc3ccccc3S2)cc1` (stereo not given), the GI50 with DLD-1 is 13.3 µM (inactive); in the test on DMS-273 it was 24.4 µM (inactive); in the test on HOP-18, 24.3 µM (inactive); with KM-20L2, 20.2 µM (inactive); in the test with LXFL 529 it was 16.6 µM (inactive); in the test with M19-MEL, 18.8 µM (inactive). Besides, the GI50 in the test with SNB-78 is 36.1 µM (inactive); in the test with XF498 it was 13.3 µM (inactive).

Take `CC(=O)c1cccc(NC(=O)C(=O)C(C2OC(=O)c3ccccc32)[N+](=O)[O-])c1` (stereo not given): the GI50 with DLD-1, in the test with DMS-114, in the test on KM-20L2, in the test with LXFL 529, in the test with M19-MEL and in the test with SNB-78 was > 100 µM (inactive) throughout. Besides, the GI50 with XF498 is > 100 µM (inactive).

Consider `Cc1ccc2[nH]c(=O)c(C(C#N)c3ccccc3)nc2c1` (stereo not given), for which the GI50 in the test on DLD-1 was 42.6 µM (inactive); in the test on DMS-273, 44.5 µM (inactive); with HOP-18, 24.7 µM (inactive); in the test with KM-20L2 it was 37.2 µM (inactive); with LXFL 529 it was 32.7 µM (inactive); with SNB-78, 28.1 µM (inactive).

With `O=C(CSc1nnc(-c2ccc(/N=C\c3ccc(Cl)cc3)cc2)o1)Nc1cccc(Cl)c1`, the GI50 with DMS-114, in the test with DMS-273, in the test with HOP-18, with KM-20L2, in the test on LXFL 529 and with M19-MEL was > 100 µM (inactive) throughout. The GI50 in the test with SNB-78 and with XF498 was > 100 µM (inactive) each time.

Regarding `Cc1ccccc1N1C(=O)/C(=C/c2ccc(N(CCC#N)CCC#N)cc2)N=C1c1cc([N+](=O)[O-])ccc1Cl`, the GI50 with DLD-1 was 79.1 µM (inactive); in the test with DMS-114, > 100 µM (inactive); with DMS-273 it was 78.9 µM (inactive); in the test on HOP-18 it was > 100 µM (inactive); in the test on KM-20L2, > 100 µM (inactive); in the test with LXFL 529 it was 96.8 µM (inactive). The GI50 in the test with SNB-78 is > 100 µM (inactive).

For `N#Cc1c(N)oc2cc3c(C#N)c(N)oc3cc12`, the GI50 in the test with DLD-1, in the test on DMS-114, in the test with DMS-273, in the test with HOP-18, with KM-20L2 and in the test with LXFL 529 was > 100 µM (inactive) throughout. Further, the GI50 in the test with M19-MEL was > 100 µM (inactive).

Turning to `COc1ccc(C2C(Cl)C(=O)N2NC(=O)c2ccc(N)cc2)cc1OC` (stereo not given), the GI50 with DLD-1 is 3.66 µM (inactive); in the test with DMS-273, 2.72 µM (inactive); in the test on KM-20L2, 12.1 µM (inactive); in the test on LXFL 529, 1.95 µM (inactive); with M19-MEL it was 4.95 µM (inactive); in the test with SNB-78 it was 63.7 µM (inactive). Further, the GI50 in the test with XF498 was 1 µM (active).

As for `S=C(Nc1ccccc1)N(/N=C/C=C/c1ccccc1)c1nnc(-c2ccccc2)c(-c2ccccc2)n1`, the GI50 in the test on DLD-1 was 76.4 µM (inactive); in the test on DMS-114 it was 26.4 µM (inactive); with DMS-273, 45.5 µM (inactive); in the test with KM-20L2, > 100 µM (inactive); in the test with M19-MEL, 64.9 µM (inactive); in the test with SNB-78 it was > 100 µM (inactive). Moreover, the GI50 with XF498 was 61 µM (inactive).

`COC(=O)C1=C(O)c2cc(OC)c(OC)c(OC)c2C(c2ccc3c(c2)OCO3)[C@@H]1C(=O)OC` (stereo not given in full): the GI50 with DLD-1 is 4.69 µM (inactive); with DMS-114, 2.4 µM (inactive); with DMS-273 it was 3.02 µM (inactive); in the test with HOP-18 it was 23.1 µM (inactive); with KM-20L2, 2.36 µM (inactive); in the test with LXFL 529, 3.08 µM (inactive). In addition, the GI50 in the test with SNB-78 was 15.1 µM (inactive).

With `CCN(CC)CCCC(C)NC(=O)c1ccc2c(c1)C(=O)c1ccccc1C2=O` (stereo not given), the GI50 with DLD-1 was 17.5 µM (inactive); in the test with DMS-114, 11.4 µM (inactive); in the test with DMS-273, 21.9 µM (inactive); in the test with HOP-18, > 85.5 µM (inactive); with KM-20L2, 18.3 µM (inactive); in the test with LXFL 529, 24.7 µM (inactive). The GI50 with M19-MEL was 16.7 µM (inactive); with SNB-78, 22.9 µM (inactive); with XF498, 16.1 µM (inactive).

Turning to `Cn1nc(-c2ccccc2)c(C(=O)/C=C/c2ccccc2)c(N2CCOCC2)c1=O`, the GI50 in the test with DLD-1 is 20.4 µM (inactive); with DMS-114, 16.8 µM (inactive); in the test on DMS-273, 19.8 µM (inactive); with HOP-18 it was 28.6 µM (inactive); with KM-20L2, 18.1 µM (inactive); in the test with LXFL 529 it was 16 µM (inactive). Moreover, the values for the GI50 in the test on M19-MEL and in the test with XF498 were 23.1 µM (inactive) and 12.7 µM (inactive), respectively.

For `O=C(O)C(=O)/C=C\c1ccc(Cl)cc1`, the GI50 in the test on DLD-1 is > 100 µM (inactive); in the test on DMS-114 it was 84.1 µM (inactive); in the test on DMS-273, > 100 µM (inactive); in the test with HOP-18, > 100 µM (inactive); in the test with KM-20L2, > 100 µM (inactive); in the test with LXFL 529, > 100 µM (inactive). Moreover, the GI50 with M19-MEL, in the test with SNB-78 and with XF498 was > 100 µM (inactive) in each case.

For `O=c1c2cc(-c3ccccc3)sc2nc2sc(-c3ccccc3)nn12`, the GI50 in the test on DLD-1, with DMS-114, in the test with DMS-273, in the test on HOP-18, with KM-20L2 and in the test with LXFL 529 was > 100 µM (inactive) in each case. Moreover, the GI50 in the test with M19-MEL, with SNB-78 and in the test on XF498 was > 100 µM (inactive) in each case.

On to `CCC1(N=[N+]=[N-])C(=O)c2ccccc2N(c2ccccc2)C1=O` (stereo not given), for which the GI50 in the test with DLD-1, in the test with DMS-114, in the test on DMS-273, with HOP-18, in the test with KM-20L2 and with LXFL 529 was > 100 µM (inactive) throughout. Also, the GI50 in the test on M19-MEL, in the test with SNB-78 and with XF498 was > 100 µM (inactive) in each case.

In the case of `CCOC(=O)NC(=O)c1cn(CCN2CCN(C(=O)NCCCCCCNC(=O)N3CCN(CCn4cc(C(=O)NC(=O)OCC)c(=O)n(CCN(CC)CC)c4=O)CC3)CC2)c(=O)n(CCC(CC)CC)c1=O`, the GI50 with DLD-1, with DMS-114, in the test on DMS-273, in the test on HOP-18, in the test with KM-20L2 and with LXFL 529 was > 100 µM (inactive) each time. Also, the GI50 in the test with M19-MEL and in the test on SNB-78 was > 100 µM (inactive) throughout.

Consider `Cc1[nH]c2ccccc2c1C1Cc2ccccc2N1C(=O)/C=C/C(=O)O` (stereo not given), for which the GI50 in the test with DLD-1, in the test with DMS-114, in the test with DMS-273, in the test on KM-20L2, with LXFL 529 and with M19-MEL was > 100 µM (inactive) each time. The GI50 in the test on SNB-78 is > 100 µM (inactive); in the test on XF498, 32.4 µM (inactive).

For the compound `OC1c2ccccc2C2C(O)c3ccccc3C12` (stereo not given), the GI50 in the test on DLD-1, in the test on DMS-114, in the test with DMS-273, with HOP-18, in the test with KM-20L2 and with LXFL 529 was > 100 µM (inactive) throughout. In the test with M19-MEL, the GI50 is > 100 µM (inactive).

On to `COc1cc(/C=N/N=C(\N)NO)c([N+](=O)[O-])cc1OC`, for which the GI50 is 56 µM (inactive) in the test with DLD-1; 6.75 µM (inactive) in the test with DMS-114; 25.9 µM (inactive) in the test on DMS-273; 21 µM (inactive) in the test on HOP-18; 30.1 µM (inactive) with KM-20L2; 27 µM (inactive) in the test with LXFL 529. Also, the values for the GI50 in the test on M19-MEL and in the test on SNB-78 were 31.9 µM (inactive) and 76.2 µM (inactive), respectively.

Turning to `O=[N+]([O-])c1cc(Cl)ccc1OCc1ccccc1`, the GI50 in the test with DLD-1 is 82.2 µM (inactive); with DMS-114, 29.4 µM (inactive); with DMS-273, 54.6 µM (inactive); in the test on LXFL 529 it was 41.6 µM (inactive); in the test with M19-MEL it was 44.3 µM (inactive); in the test with SNB-78 it was 32.8 µM (inactive). Also, the GI50 in the test on XF498 was 20.4 µM (inactive).

As for `OCC(O)C(O)C(O)C1SC(c2ccccc2)=NN1c1ccccc1` (stereo not given), the GI50 with DLD-1 is > 100 µM (inactive); in the test with DMS-114, > 84.7 µM (inactive); in the test with DMS-273, > 76.6 µM (inactive); in the test with HOP-18 it was 51.8 µM (inactive); with KM-20L2, > 100 µM (inactive); in the test on LXFL 529 it was > 95.5 µM (inactive). The GI50 was > 100 µM (inactive) in the test on M19-MEL, 44.4 µM (inactive) in the test with SNB-78 and 30.1 µM (inactive) with XF498.
